Activity calls are given as the source filed them. No rule for the calls is given here.

This is an account of results in PubChem BioAssay AID1259407 (Chemical Carcinogenesis Research Information System (CCRIS), 2018).

The series concerns CCRIS mutagenicity, Ames/micronucleus/aberration tests. Briefly: CCRIS mutagenicity studies.
Setting [1] is: Test System: AMES SALMONELLA TYPHIMURIUM, Strain/Indicator: TA98, Metabolic Activation: NONE, Method: STANDARD PLATE.
Where [2] appears, read: Test System: AMES SALMONELLA TYPHIMURIUM, Strain/Indicator: TA100, Metabolic Activation: NONE, Method: STANDARD PLATE.
[3] abbreviates: Test System: AMES SALMONELLA TYPHIMURIUM, Strain/Indicator: TA1535, Metabolic Activation: NONE, Method: STANDARD PLATE.
[4] abbreviates: Test System: AMES SALMONELLA TYPHIMURIUM, Strain/Indicator: TA1537, Metabolic Activation: NONE, Method: STANDARD PLATE.
Setting [5] is: Test System: AMES SALMONELLA TYPHIMURIUM, Strain/Indicator: TA98, Metabolic Activation: NONE, Method: PREINCUBATION
Where [6] appears, read: Test System: AMES SALMONELLA TYPHIMURIUM, Strain/Indicator: TA100, Metabolic Activation: NONE, Method: PREINCUBATION

As to `O=[N+]([O-])c1ccc2ccc3c4c(cc5ccc1c2c53)[C@H](O)[C@@H](O)C=C4`, the mutagenic call by setting is: (Test System: AMES SALMONELLA TYPHIMURIUM, Strain/Indicator: TA98, Metabolic Activation: NONE) “active; positive”; (Test System: AMES SALMONELLA TYPHIMURIUM, Strain/Indicator: TA98, Metabolic Activation: RAT, LIVER, S-9, AROCLOR 1254) “active; positive”; (Test System: CHINESE HAMSTER OVARY, Strain/Indicator: CHO-K1-BH4 (HGPRT), Metabolic Activation: NONE) “active; positive”; (Test System: CHINESE HAMSTER OVARY, Strain/Indicator: CHO-K1-BH4 (HGPRT), Metabolic Activation: RAT, LIVER, S-9, 3-METHYLCHOLANTHRENE) “active; positive”.

For `O=[N+]([O-])C1=Cc2ccc3ccc4cccc5cc1c2c3c45`, the mutagenic call is “active; positive” under setting [1]; “active; positive” (Test System: AMES SALMONELLA TYPHIMURIUM, Strain/Indicator: TA98, Metabolic Activation: RAT, LIVER, S-9, AROCLOR 1254, Method: STANDARD PLATE); “active; positive” under setting [2]; “inactive; negative” (Test System: AMES SALMONELLA TYPHIMURIUM, Strain/Indicator: TA100, Metabolic Activation: RAT, LIVER, S-9, AROCLOR 1254, Method: STANDARD PLATE); “inactive; negative” under setting [3]; “inactive; negative” (Test System: AMES SALMONELLA TYPHIMURIUM, Strain/Indicator: TA1535, Metabolic Activation: RAT, LIVER, S-9, AROCLOR 1254, Method: STANDARD PLATE). Besides, the mutagenic call is “active; positive” under setting [4]; “active; positive” (Test System: AMES SALMONELLA TYPHIMURIUM, Strain/Indicator: TA1537, Metabolic Activation: RAT, LIVER, S-9, AROCLOR 1254, Method: STANDARD PLATE); “active; positive” (Test System: AMES SALMONELLA TYPHIMURIUM, Strain/Indicator: TA1538, Metabolic Activation: NONE, Method: STANDARD PLATE); “active; positive” (Test System: AMES SALMONELLA TYPHIMURIUM, Strain/Indicator: TA1538, Metabolic Activation: RAT, LIVER, S-9, AROCLOR 1254, Method: STANDARD PLATE).

As to `CN(N=O)C(=O)c1c(N(C)C(=O)OC(C)(C)C)ncn1C`, the mutagenic call is “inactive; negative” under setting [1]; “inactive; negative” (Test System: AMES SALMONELLA TYPHIMURIUM, Strain/Indicator: TA98, Metabolic Activation: S-9, Method: STANDARD PLATE); “active; positive” under setting [2]; “active; positive” (Test System: AMES SALMONELLA TYPHIMURIUM, Strain/Indicator: TA100, Metabolic Activation: S-9, Method: STANDARD PLATE); “inactive; negative” (Test System: AMES SALMONELLA TYPHIMURIUM, Strain/Indicator: TA102, Metabolic Activation: NONE, Method: STANDARD PLATE); “active; positive” (Test System: AMES SALMONELLA TYPHIMURIUM, Strain/Indicator: TA102, Metabolic Activation: S-9, Method: STANDARD PLATE). Moreover, the mutagenic call was “active; positive” under setting [3]; “active; positive” (Test System: AMES SALMONELLA TYPHIMURIUM, Strain/Indicator: TA1535, Metabolic Activation: S-9, Method: STANDARD PLATE); “inactive; negative” under setting [4]; “inactive; negative” (Test System: AMES SALMONELLA TYPHIMURIUM, Strain/Indicator: TA1537, Metabolic Activation: S-9, Method: STANDARD PLATE).

`[O-][n+]1cc2cnccc2cn1`: the mutagenic call reads like this: under setting [5], “active; positive”; (Test System: AMES SALMONELLA TYPHIMURIUM, Strain/Indicator: TA98, Metabolic Activation: RAT, LIVER, S-9, PCB, Method: PREINCUBATION) “active; positive”; under setting [6], “inactive; negative”; (Test System: AMES SALMONELLA TYPHIMURIUM, Strain/Indicator: TA100, Metabolic Activation: RAT, LIVER, S-9, PCB, Method: PREINCUBATION) “inactive; negative”.

With `Clc1cc2c(cc1Cl)Oc1cc(Cl)c(Cl)cc1O2`, the mutagenic call is “inactive; negative” (End Point: IN VITRO CHROMOSOMAL ABERRATIONS, Test System: CHINESE HAMSTER OVARY CELLS, Metabolic Activation: NONE); “inactive; negative” (End Point: IN VITRO CHROMOSOMAL ABERRATIONS, Test System: CHINESE HAMSTER OVARY CELLS, Metabolic Activation: RAT, LIVER, S-9, AROCLOR 1254); “inactive; negative” (Test System: AMES SALMONELLA TYPHIMURIUM, Strain/Indicator: TA97, Metabolic Activation: NONE, Method: PREINCUBATION); “inactive; negative” (Test System: AMES SALMONELLA TYPHIMURIUM, Strain/Indicator: TA97, Metabolic Activation: RAT, LIVER, S-9, AROCLOR 1254, Method: PREINCUBATION); “inactive; negative” under setting [5]; “inactive; negative” (Test System: AMES SALMONELLA TYPHIMURIUM, Strain/Indicator: TA98, Metabolic Activation: RAT, LIVER, S-9, AROCLOR 1254, Method: PREINCUBATION). Besides, the mutagenic call reads like this: under setting [6], “inactive; negative”; (Test System: AMES SALMONELLA TYPHIMURIUM, Strain/Indicator: TA100, Metabolic Activation: RAT, LIVER, S-9, AROCLOR 1254, Method: PREINCUBATION) “inactive; negative”; (Test System: Ames Salmonella typhimurium, Strain/Indicator: TA98, Metabolic Activation: Hamster, Liver, S-9, Aroclor 1254, Method: Preincubation) “inactive; negative”; (Test System: Ames Salmonella typhimurium, Strain/Indicator: TA98, Metabolic Activation: None, Method: Preincubation) “inactive; negative”; (Test System: Ames Salmonella typhimurium, Strain/Indicator: TA98, Metabolic Activation: Rat, Liver, S-9, Aroclor 1254, Method: Preincubation) “inactive; negative”; (Test System: Ames Salmonella typhimurium, Strain/Indicator: TA100, Metabolic Activation: Hamster, Liver, S-9, Aroclor 1254, Method: Preincubation) “inactive; negative”. The mutagenic call (Test System: Ames Salmonella typhimurium, Strain/Indicator: TA100, Metabolic Activation: None, Method: Preincubation) is “inactive; negative”; the mutagenic call (Test System: Ames Salmonella typhimurium, Strain/Indicator: TA100, Metabolic Activation: Rat, Liver, S-9, Aroclor 1254, Method: Preincubation) is “inactive; negative”; the mutagenic call (Test System: Ames Salmonella typhimurium, Strain/Indicator: TA1535, Metabolic Activation: Hamster, Liver, S-9, Aroclor 1254, Method: Preincubation) is “inactive; negative”; the mutagenic call (Test System: Ames Salmonella typhimurium, Strain/Indicator: TA1535, Metabolic Activation: None, Method: Preincubation) was “inactive; negative”; the mutagenic call (Test System: Ames Salmonella typhimurium, Strain/Indicator: TA1535, Metabolic Activation: Rat, Liver, S-9, Aroclor 1254, Method: Preincubation) was “inactive; negative”; the mutagenic call (Test System: Ames Salmonella typhimurium, Strain/Indicator: TA1537, Metabolic Activation: Hamster, Liver, S-9, Aroclor 1254, Method: Preincubation) is “inactive; negative”. Moreover, the mutagenic call was “inactive; negative” (Test System: Ames Salmonella typhimurium, Strain/Indicator: TA1537, Metabolic Activation: None, Method: Preincubation); “inactive; negative” (Test System: Ames Salmonella typhimurium, Strain/Indicator: TA1537, Metabolic Activation: Rat, Liver, S-9, Aroclor 1254, Method: Preincubation); “inactive; negative” (Test System: MOUSE LYMPHOMA, Strain/Indicator: L5178Y (TK+/TK-), Metabolic Activation: NONE, Method: SUSPENSION/PLATE); “inactive; negative” (Test System: MOUSE LYMPHOMA, Strain/Indicator: L5178Y (TK+/TK-), Metabolic Activation: RAT, LIVER, S-9, AROCLOR 1254, Method: SUSPENSION/PLATE).

On to `O=[N+]([O-])c1cccc2nc3ccccc3nc12`, for which the mutagenic call is, setting by setting: (Test System: AMES SALMONELLA TYPHIMURIUM, Strain/Indicator: TA98(NR), Metabolic Activation: NONE, Method: PREINCUBATION) “active; positive”; under setting [5], “inactive; negative”.

For `OC1c2cccnc2C2OC2C1O` (centres undefined), the mutagenic call under setting [2] is “inactive; negative” and the mutagenic call (Test System: AMES SALMONELLA TYPHIMURIUM, Strain/Indicator: TA100, Metabolic Activation: RAT, LIVER, S-9, AROCLOR 1254 (10 OR 20%), Method: STANDARD PLATE) is “inactive; negative”.
